Measurements reported in patent US11472846B2, “Compositions and methods for treating diseases by inhibiting exosome release” (priority 2016, dated 2022).

Experiments:
Assay type in all cases: cell-based, human
[1] = test system: MCF-7 breast cancer cells; test: Exosome release by acetylcholinesterase (AchE) assay, MCF-7; settings: for average AChE concentration days 1 to 5: MCF-7 cells, five-day treatment
Description: 1-6. Exosome isolation and purification. Exosomes were isolated from breast cancer cells by differential centrifugation as previously described (Ali SA. et al., 2010). Untreated tumor cells were used as a control. Briefly, the above treated and untreated cell culture supernatants were centrifuged at 400×g for 10 minutes. The supernatants were transferred to a clear tube and centrifuged at 10,000×g for 30 minutes. The supernatants from the second spin were ultracentrifuged at 200,000×g for 2 hours to pellet exosomes. Finally, the exosome pellets were re-suspended with PBS and stored at 4° C. until used for analysis.
1-7. Exosome characterization by acetylcholinesterase (AchE) assay. Purified exosomes were quantitated by measurement of AchE as described (Ellman et al., 1961). Briefly, a 100 mM dithibionitrobenzoic (DTNB) solution was prepared for use as a stock color indicator, and a 28.9 mg/mL acetylthiocholine iodide in PBS solution was prepared as a stock substrate. The stock substrate stock can be stored at −20° C. up to one month, while the color indicator can be stored at 4° C. for two weeks. A working solution was prepared by mixing 10 mL of PBS with 200 μL of Substrate and 500 μl of DTNB. 50 μL of each exosome sample was transferred to 96 well microtitre plates, and a standard curve was prepared using AchE from 0.98 mU/mL to 2000 mU/mL. After 50 μL of standards were added into separate wells, 200 μL of the working solution was added to all wells. After 20 min incubation, AchE activity was measured at 450 nm using a SpectroMax M5 fluorimeter.
7-5. Exosome isolation and purification. Exosomes were isolated from breast cancer cells and leukemia cells using the ExoQuick-TC Exosome Precipitation Kit (System Biosciencences [SBI], Mountain View Calif.) or the miRCURY Exosome Isolation Kit (EXIQON, Woburn, Mass.) according to the manufacturer's instructions. Untreated tumor cells were used as a control. Briefly, treated and untreated cell culture supernatants (10 mL) were centrifuged at 3000×g for 15 minutes. The resulting supernatants were transferred to a clear tube, 2 mL of ExoQuick-TC buffer was added, mixed and incubated overnight at 4° C. Following the incubation, the sample contents were centrifuged at 1500×g for 30 minutes, the supernatants were aspirated off, the pellets were centrifuged at 1500×g for 5 minutes and any further traces of supernatant were removed (SBI). Alternatively, treated and untreated cell culture supernatants were centrifuged at 10,000×g for 5 minutes to remove cell debris, supernatants (10 ml) were transferred into new tubes, and 4 mL of precipitation buffer (EXIQON) was added, and the contents were mixed and incubated at 4° C. overnight. Following the incubation, the sample contents were centrifuged at 10,000×g for 30 minutes (EXIQON). Exosome-containing pellets were re-suspended in PBS and stored at 4° C. or −80° C.
7-6. Exosome characterization by acetylcholinesterase (AchE) assay. Purified exosomes were quantitated by measurement of AchE as previously described (Huang et al., Oncotarget, 2017. 8(7): pp. 11302-11315). Briefly, 100 mM dithibionitrobenzoic (DTNB) was prepared as a stock color indicator, and prepared a stock substrate containing 28.9 mg/mL of acetylthiocholine iodide in PBS. Substrate stock can be stored at −20° C. up to one month; the stock color indicator can be stored at 4° C. for two weeks. A working solution was prepared by mixing 10 mL of PBS with 200 μL of substrate and 500 μl of DTNB. 50 μL of each exosome sample was transferred to a 96 well microtitre plate, and a standard curve for AchE concentrations was prepared using AchE from 0.98 mU/mL to 2000 mU/mL. After 50 μL of standards were added into separate wells, 200 μL of the working solution was added to each well. After a 20 min incubation, AchE activity was measured at 450 nm using a SpectroMax M5 fluorometer (FIG. 11).

[2] = test system: exosomes from MCF-7 cells; test: Western blot of exosomal proteins (Alix, vimentin, mortalin), MCF-7; settings: 48 hr treatment, vs negative controls
Description: 7-7. Protein analysis by Western blotting. Exosomes were isolated from cell culture supernatants as described above. Protein concentrations were determined by measuring absorbance at 280 nm (Nanodrop 2000). Cultured cells were treated with PEG-SMR-Clu, SMR-CPP peptides, MKT-077, Omeprazole or DMA at 37° C. for 48 hr. To evaluate mortalin, vimentin and exosome expression, Western blot analysis was performed using anti-mortalin (Grp-75), anti-Vimentin and anti-Alix antibodies, respectively (FIG. 12).
Exosomes and cell lysates were prepared by incubating 5-10 min at 95° C. in sample buffer. The lysates were subjected to SDS-PAGE under reducing conditions (150 mM DTT) in 4-20% Criterion™ TGX™ precast gels (BioRad, Hercules, Calif.) and then transferred onto a nitrocellulose membrane (Bio-Rad, Hercules, Calif.). Nitrocellulose membranes were blocked with 5% skim milk (MedSupply, Atlanta, Ga.) in TBS containing 0.05% Tween 20 (TBST) for 1 h at room temperature. The membranes were treated with anti-mortalin (Grp-75) mAb or anti-α-tubulin mAb for cell lysates (FIG. 15, Panels A and B) or with anti-Alix and anti-vimentin or anti-mortalin for exosomes (FIG. 12), followed by peroxidase-conjugated goat anti-mouse IgG. Bands were developed with an ECL chemiluminescent substrate (Santa Cruz Biotechnology, Santa Cruz, Calif.) and exposed to an ImageQuant LAS 4000 imaging system (GE Healthcare, Piscataway, N.J. 08854).

MDA-MB-231 cells = test: Complement-mediated cell cytotoxicity assay (trypan blue), MDA-MB-231; settings: for cell death under complement-positive conditions: 280 nM PEG-SMRwt-Clu or 560 nM SMRwt-CPP 60 min, then anti-CXCR4 antibody and NHS 60 min; for cell death under complement-negative conditions: 280 nM PEG-SMRwt-Clu or 560 nM SMRwt-CPP, 60 min
Description: 7-9. Complement-mediated cell cytotoxicity assay. Complement-mediated cell cytotoxicity assays were performed as previously described (Reiter et al., Mol Immunol. (1992) 29(6): p. 771-81). Briefly, MCF-7, MDA-MB-231 and K562 cells were either mock-transfected or transfected with mortalin siRNA. […] or SMRwt-CPP peptide or SMRmut-CPP peptide alone, or treated with SMR peptide combined with complement from normal human serum (NHS) or heat-inactivated normal human serum (NIS) for 60 min at 37° C. Percentage of cells lysed were determined by a trypan blue exclusion assay using the TC10™ Automated Cell Counter (Bio-Rad, Richmond Calif.). (FIG. 14, FIG. 15, Panel D).

Row | Sequence | average AChE concentration days 1 to 5 [1] [mU/mL] | Alix expression in exosomes [2] | Mortalin expression in exosomes [2] | Vimentin expression in exosomes [2] | cell death under complement-positive conditions (MDA-MB-231 cells) [%] | cell death under complement-negative conditions (MDA-MB-231 cells) [%] | AchE activity in exosomes ([1]; MCF-7 cells treated 48 hr, control exosomes 113.49 mU/mL) [mU/mL]
1 | VGFPVAAVGFPVGRKKRRQRRRPPQ [SMRwt-CPP] | 22 | significantly decreased | no significant changes | significantly decreased | 9 | 3.6 | –
2 | NXNVGFPVAAVGFPVHPLSKHPYWSQP (SEQ ID NO: 37) [PEG-SMRwt-Clu] | 31 | significantly decreased | significantly decreased | significantly decreased | 76 | 3.6 | 41.95
